Target: T1, hP2X3 (human Purinergic P2X receptors subtype 3), clone B (Homo sapiens, UniProt P56373)
T1 sequence (P56373 1-397): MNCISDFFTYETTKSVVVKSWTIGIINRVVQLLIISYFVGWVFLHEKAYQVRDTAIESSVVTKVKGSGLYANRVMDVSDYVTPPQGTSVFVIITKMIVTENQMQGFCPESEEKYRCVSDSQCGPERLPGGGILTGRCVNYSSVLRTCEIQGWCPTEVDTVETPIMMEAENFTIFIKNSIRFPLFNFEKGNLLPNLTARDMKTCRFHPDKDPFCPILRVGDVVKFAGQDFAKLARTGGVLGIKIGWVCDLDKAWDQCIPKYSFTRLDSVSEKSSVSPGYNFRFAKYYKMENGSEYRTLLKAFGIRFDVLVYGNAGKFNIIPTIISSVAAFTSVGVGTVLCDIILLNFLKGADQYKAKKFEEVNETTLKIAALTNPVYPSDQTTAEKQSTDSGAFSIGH
Test: hP2X3 FLIPR calcium (Fluo-4) antagonist assay, clone B
Details: Human P2X3 FLIPR Clone B IC50 (nM), RLE cells expressing hP2X3 clone B (NM_002559); agonist 500 nM α,β-methylene-ATP

Row | SMILES | IC50
1 | CC(=O)N1CCN(c2nc3c(c(N(C)Cc4cc5ccccc5nc4C)n2)CN(C(C)C)C3=O)CC1 [Example 347, 2-(4-acetylpiperazin-1-yl)-6-isopropyl-4-(methyl((2-methylquinolin-3-yl)methyl)amino)-5H-pyrrolo[3,4-d]pyrimidin-7(6H)-one] | 2900 nM
2 | CCN1CCN(c2nc(NC3c4cccnc4CCc4c(F)cccc43)c3c(n2)C(=O)N(C(C)C)C3)CC1 (stereo not shown) [Example 120, 2-(4-ethylpiperazin-1-yl)-4-[(9-fluoro-10,11-dihydro-5H-benzo[4,5]cyclohepta[1,2-b]pyridin-5-yl)amino]-6-isopropyl-5,6-dihydro-7H-pyrrolo[3,4-d]pyrimidin-7-one] | 1400 nM
3 | CC(=O)N1CCN(c2nc(NCc3cn4ccccc4n3)c3c(n2)C(=O)N(C(C)C)C3)CC1 [Example 155, 4-(4-acetylpiperazin-1-yl)-2-(1,7-diazabicyclo[4.3.0]nona-2,4,6,8-tetraen-8-ylmethylamino)-8-propan-2-yl-3,5,8-triazabicyclo[4.3.0]nona-1,3,5-trien-7-one] | 500 nM
4 | CC(C)N1Cc2c(nc(NCCN(C)C)nc2N2CCCC2Cc2ccc(Cl)cc2)C1=O (stereo not shown) [Example 57, 4-[2-(4-chlorobenzyl)pyrrolidin-1-yl]-2-{[2-(dimethylamino)ethyl]amino}-6-isopropyl-5,6-dihydro-7H-pyrrolo[3,4-d]pyrimidin-7-one] | 8500 nM
5 | CC(C)N1Cc2c(NC(C)(C)Cc3ccc(Cl)cc3)nc(N3CCN(C=O)CC3)nc2C1=O [Example 128, 4-(4-{[2-(4-chlorophenyl)-1,1-dimethylethyl]amino}-6-isopropyl-7-oxo-6,7-dihydro-5H-pyrrolo[3,4-d]pyrimidin-2-yl)piperazine-1-carbaldehyde] | 280 nM
6 | CC(=O)N1CCN(c2nc3c(c(N4CCCC4Cc4cccc(Cl)c4)n2)CN(C(C)C)C3=O)CC1 (stereo not shown) [Example 48, 2-(4-acetylpiperazin-1-yl)-4-[2-(3-chlorobenzyl)pyrrolidin-1-yl]-6-isopropyl-5,6-dihydro-7H-pyrrolo[3,4-d]pyrimidin-7-one] | 300 nM
7 | CC(C)N1Cc2c(NCc3cnc4ccccc4c3)nc(N(C)CC3CCCO3)nc2C1=O (stereo not shown) [Example 217, 6-isopropyl-2-(methyl-(tetrahydrofuran-2-ylmethyl)amino)-4-(3-quinolylmethylamino)-5H-pyrrolo[3,4-d]pyrimidin-7-one] | 5900 nM
8 | CC(C)N1Cc2c(NCC(c3ccccc3)c3ccccc3)nc(NCCCN(C)C)nc2C1=O [Example 108, 2-(3-Dimethylamino-propylamino)-4-(2,2-diphenyl-ethylamino)-6-isopropyl-5,6-dihydro-pyrrolo[3,4-d]pyrimidin-7-one] | 4400 nM
9 | CC(C)N1Cc2c(NCc3cnc4ccccc4c3)nc(N3CCNC(=O)C3)nc2C1=O [Example 206, 6-isopropyl-2-(3-oxopiperazin-1-yl)-4-(quinolin-3-ylmethylamino)-5H-pyrrolo[3,4-d]pyrimidin-7(6H)-one] | 3200 nM
10 | CC(=O)N1CCN(c2nc(NCc3cc(-c4ccccc4)n(C)n3)c3c(n2)C(=O)N(C(C)C)C3)CC1 [Example 153, 4-(4-acetylpiperazin-1-yl)-2-[(1-methyl-5-phenyl-pyrazol-3-yl)methylamino]-8-propan-2-yl-3,5,8-triazabicyclo[4.3.0]nona-1,3,5-trien-7-one] | 120 nM
11 | CC(C)N1Cc2c(Nc3ccc(Cc4ccccc4)cc3)nc(N3CCOCC3)nc2C1=O [Example 37, 4-[(4-benzylphenyl)amino]-6-isopropyl-2-morpholin-4-yl-5,6-dihydro-7H-pyrrolo[3,4-d]pyrimidin-7-one] | > 30000 nM
12 | CC(C)C(=O)N1CCN(c2nc(NC(C)(C)Cc3ccc(Cl)cc3)c3c(n2)C(=O)N(C(C)C)C3)CC1 [Example 124, 4-{[2-(4-chlorophenyl)-1,1-dimethylethyl]amino}-2-(4-isobutyrylpiperazin-1-yl)-6-isopropyl-5,6-dihydro-7H-pyrrolo[3,4-d]pyrimidin-7-one] | 3000 nM
13 | CC(=O)N1CCN(c2nc(NCc3nc(-c4ccccc4)no3)c3c(n2)C(=O)N(C(C)C)C3)CC1 [Example 145, 4-(4-acetylpiperazin-1-yl)-2-[(3-phenyl-1,2,4-oxadiazol-5-yl)methylamino]-8-propan-2-yl-3,5,8-triazabicyclo[4.3.0]nona-1,3,5-trien-7-one] | 3200 nM
14 | CCN(Nc1nc(N2CCN(C(C)=O)CC2)nc2c1CN(C(C)C)C2=O)c1ccc(C)cc1 [Example 39, 2-(4-acetylpiperazin-1-yl)-4-[2-ethyl-2-(4-methylphenyl)hydrazino]-6-isopropyl-5,6-dihydro-7H-pyrrolo[3,4-d]pyrimidin-7-one] | 10000 nM
15 | COc1ccccc1CC1CCCN1c1nc(N2CCN(C(C)=O)CC2)nc2c1CN(C(C)C)C2=O (stereo not shown) [Example 290, 2-(4-acetylpiperazin-1-yl)-6-isopropyl-4-[2-[(2-methoxyphenyl)methyl]pyrrolidin-1-yl]-5H-pyrrolo[3,4-d]pyrimidin-7-one] | 2000 nM
16 | CC(=O)N1CCN(c2nc3c(c(N4CCC[C@H]4Cc4ccccc4)n2)CN(C(C)C)C3=O)CC1 [Example 117, 2-(4-acetylpiperazin-1-yl)-4-[(2S)-2-benzylpyrrolidin-1-yl]-6-isopropyl-5,6-dihydro-7H-pyrrolo[3,4-d]pyrimidin-7-one] | 3700 nM
17 | CC(=O)NC1CCN(c2nc(NCc3cnc4ccccc4c3)c3c(n2)C(=O)N(C(C)C)C3)C1 (stereo not shown) [Example 207, N-(1-(6-isopropyl-7-oxo-4-(quinolin-3-ylmethylamino)-6,7-dihydro-5H-pyrrolo[3,4-d]pyrimidin-2-yl)pyrrolidin-3-yl)acetamide] | 7100 nM
18 | CC(C)N1Cc2c(NC(C)(C)Cc3ccc(Cl)cc3)nc(N3CCN(C(=O)N(C)C)CC3)nc2C1=O [Example 127, 4-(4-{[2-(4-chlorophenyl)-1,1-dimethylethyl]amino}-6-isopropyl-7-oxo-6,7-dihydro-5H-pyrrolo[3,4-d]pyrimidin-2-yl)-N,N-dimethylpiperazine-1-carboxamide] | 2200 nM
19 | CC(=O)N1CCN(c2nc(NCc3cc4ccccc4nc3C)c3c(n2)C(=O)N(C(C)C)C3)CC1 [Example 241, 2-(4-acetylpiperazin-1-yl)-6-isopropyl-4-((2-methylquinolin-3-yl)methylamino)-5H-pyrrolo[3,4-d]pyrimidin-7(6H)-one] | 68 nM
20 | CC(=O)N1CCN(c2nc(NCc3noc(C4CCC4)n3)c3c(n2)C(=O)N(C(C)C)C3)CC1 [Example 278, 4-(4-acetylpiperazin-1-yl)-2-[(5-cyclobutyl-1,2,4-oxadiazol-3-yl)methylamino]-8-propan-2-yl-3,5,8-triazabicyclo[4.3.0]nona-1,3,5-trien-7-one] | 750 nM
21 | CC(=O)N1CCN(c2nc(NC(Cc3ccccc3)c3ccccc3)c3c(n2)C(=O)N(C(C)C)C3)CC1 (stereo not shown) [Example 88, 2-(4-Acetyl-piperazin-1-yl)-4-(1,2-diphenyl-ethylamino)-6-isopropyl-5,6-dihydro-pyrrolo[3,4-d]pyrimidin-7-one] | 1800 nM
22 | CC(=O)N1CCN(c2nc3c(c(N(Cc4cc5ccccc5cn4)CC(F)F)n2)CN(C(C)C)C3=O)CC1 [Example 256, 2-(4-acetylpiperazin-1-yl)-4-((2,2-difluoroethyl)(isoquinolin-3-ylmethyl)amino)-6-isopropyl-5H-pyrrolo[3,4-d]pyrimidin-7(6H)-one] | 46 nM
23 | CC(C)N1Cc2c(NC(c3ccc(F)cc3)c3ccc(F)cc3)nc(N3CC4CC3CN4C)nc2C1=O (stereo not shown) [Example 23, 4-{[bis(4-fluorophenyl)methyl]amino}-6-isopropyl-2-(5-methyl-2,5-diazabicyclo[2.2.1]hept-2-yl)-5,6-dihydro-7H-pyrrolo[3,4-d]pyrimidin-7-one] | 210 nM
24 | CCN(CC)c1nc(NC(c2ccccc2)c2ccccc2)c2c(n1)C(=O)N(C(C)C)C2 [Example 89, 4-(Benzhydryl-amino)-2-diethylamino-6-isopropyl-5,6-dihydro-pyrrolo[3,4-d]pyrimidin-7-one] | 6200 nM
25 | CC(=O)N1CCN(c2nc(NC(C)c3ccc(C(C)C)cc3)c3c(n2)C(=O)N(C(C)C)C3)CC1 (stereo not shown) [Example 40, 2-(4-acetylpiperazin-1-yl)-6-isopropyl-4-{[1-(4-isopropylphenyl)ethyl]amino}-5,6-dihydro-7H-pyrrolo[3,4-d]pyrimidin-7-one] | 310 nM
26 | CC(=O)N1CCN(c2nc(NC(C)c3ccc(C(C)(C)C)cc3)c3c(n2)C(=O)N(C(C)C)C3)CC1 (stereo not shown) [Example 5, 2-(4-acetylpiperazin-1-yl)-4-{[1-(4-tert-butylphenyl)ethyl]amino}-6-isopropyl-5,6-dihydro-7H-pyrrolo[3,4-d]pyrimidin-7-one] | 440 nM
27 | CC(C)N1Cc2c(nc(N3CCNC(=O)C3)nc2N2CCCC2Cc2ccc(Cl)cc2)C1=O (stereo not shown) [Example 49, 4-[2-(4-chlorobenzyl)pyrrolidin-1-yl]-6-isopropyl-2-(3-oxopiperazin-1-yl)-5,6-dihydro-7H-pyrrolo[3,4-d]pyrimidin-7-one] | 2000 nM
28 | COCCNc1nc2c(c(N3CCCC3Cc3ccc(Cl)cc3)n1)CN(C(C)C)C2=O (stereo not shown) [Example 44, 4-[2-(4-chlorobenzyl)pyrrolidin-1-yl]-6-isopropyl-2-[(2-methoxyethyl)amino]-5,6-dihydro-7H-pyrrolo[3,4-d]pyrimidin-7-one] | 9600 nM
